One block for each compound: values may come before it.
Experiments:
[1] = biological target: T1, Somatostatin receptor type 2 (Homo sapiens, UniProt P30874); assay: Agonist activity at human SST2 expressed in CHO-K1 cells assessed as reduction in NKH477-induced intracellular cAMP accumulation; type: functional, cell-based
[2] = biological target: Cytochrome P450 2C19 (Homo sapiens, UniProt P33261); assay: Inhibition of CYP2C19 (unknown origin); type: ADME
[3] = biological target: Somatostatin receptor type 5 (Homo sapiens, UniProt P35346); assay: Agonist activity at SST5 (unknown origin)
Chain of Somatostatin receptor type 5 (P35346 whole entry): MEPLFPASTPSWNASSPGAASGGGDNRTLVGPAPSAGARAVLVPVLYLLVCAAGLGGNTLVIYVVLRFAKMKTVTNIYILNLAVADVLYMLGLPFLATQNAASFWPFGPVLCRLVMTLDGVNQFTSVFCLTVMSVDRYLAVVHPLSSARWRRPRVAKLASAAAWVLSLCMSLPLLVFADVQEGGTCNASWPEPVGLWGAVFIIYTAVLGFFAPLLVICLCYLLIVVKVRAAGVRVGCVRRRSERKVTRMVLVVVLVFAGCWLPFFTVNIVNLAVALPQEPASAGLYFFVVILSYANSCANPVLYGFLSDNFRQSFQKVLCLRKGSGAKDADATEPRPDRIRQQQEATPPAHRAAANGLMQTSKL

[4] = biological target: Voltage-gated inwardly rectifying potassium channel KCNH2 (Homo sapiens, UniProt Q12809); assay: Inhibition of human ERG expressed in HEK293 cells; type: cell-based
Chain of Voltage-gated inwardly rectifying potassium channel KCNH2 (Q12809 whole entry): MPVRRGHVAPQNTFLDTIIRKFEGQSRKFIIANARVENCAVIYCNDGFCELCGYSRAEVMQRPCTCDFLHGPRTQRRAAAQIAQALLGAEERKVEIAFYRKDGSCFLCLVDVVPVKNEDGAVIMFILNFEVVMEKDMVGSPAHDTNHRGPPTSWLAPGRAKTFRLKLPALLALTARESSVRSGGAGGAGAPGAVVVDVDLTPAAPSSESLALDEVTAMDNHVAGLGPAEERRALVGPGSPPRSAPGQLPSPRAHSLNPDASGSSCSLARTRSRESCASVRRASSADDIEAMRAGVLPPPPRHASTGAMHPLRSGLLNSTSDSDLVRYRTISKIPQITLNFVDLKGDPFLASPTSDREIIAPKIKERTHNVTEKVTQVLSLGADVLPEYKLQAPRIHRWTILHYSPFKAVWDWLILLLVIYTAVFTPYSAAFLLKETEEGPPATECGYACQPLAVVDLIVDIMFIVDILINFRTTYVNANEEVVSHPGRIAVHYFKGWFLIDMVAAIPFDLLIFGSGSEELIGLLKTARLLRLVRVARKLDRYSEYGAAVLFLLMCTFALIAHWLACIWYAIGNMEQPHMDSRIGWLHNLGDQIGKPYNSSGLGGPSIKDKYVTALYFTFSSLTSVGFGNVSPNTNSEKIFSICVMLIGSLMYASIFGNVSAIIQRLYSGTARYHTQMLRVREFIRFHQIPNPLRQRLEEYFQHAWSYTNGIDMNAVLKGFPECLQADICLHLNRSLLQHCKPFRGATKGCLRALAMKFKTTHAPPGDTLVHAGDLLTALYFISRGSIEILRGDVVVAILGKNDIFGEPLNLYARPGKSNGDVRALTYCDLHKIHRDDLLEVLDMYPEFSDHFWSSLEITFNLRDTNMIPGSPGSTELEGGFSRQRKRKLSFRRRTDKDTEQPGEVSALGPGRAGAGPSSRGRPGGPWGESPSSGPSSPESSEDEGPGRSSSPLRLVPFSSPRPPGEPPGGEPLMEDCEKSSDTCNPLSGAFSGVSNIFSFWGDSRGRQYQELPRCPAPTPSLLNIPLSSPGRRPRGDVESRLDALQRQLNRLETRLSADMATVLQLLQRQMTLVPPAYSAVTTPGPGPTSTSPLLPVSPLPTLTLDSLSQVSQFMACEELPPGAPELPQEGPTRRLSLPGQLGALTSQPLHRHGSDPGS

[5] = biological target: Somatostatin receptor type 3 (Homo sapiens, UniProt P32745); assay: Agonist activity at SST3 (unknown origin)
Chain of Somatostatin receptor type 3 (P32745 whole entry): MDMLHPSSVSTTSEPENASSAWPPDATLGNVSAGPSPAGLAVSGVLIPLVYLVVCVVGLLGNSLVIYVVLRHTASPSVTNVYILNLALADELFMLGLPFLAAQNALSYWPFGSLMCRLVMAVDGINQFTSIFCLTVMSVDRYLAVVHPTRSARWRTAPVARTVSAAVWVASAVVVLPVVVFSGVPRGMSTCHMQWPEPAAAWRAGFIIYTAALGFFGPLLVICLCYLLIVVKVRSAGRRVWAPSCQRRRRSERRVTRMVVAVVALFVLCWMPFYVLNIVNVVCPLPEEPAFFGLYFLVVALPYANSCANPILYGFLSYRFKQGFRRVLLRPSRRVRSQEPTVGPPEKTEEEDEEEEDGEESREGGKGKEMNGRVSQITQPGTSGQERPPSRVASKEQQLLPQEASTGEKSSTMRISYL

[6] = biological target: Cytochrome P450 2C9 (Homo sapiens, UniProt P11712); assay: Inhibition of CYP2C9 (unknown origin); type: ADME
Chain of Cytochrome P450 2C9 (P11712 whole entry): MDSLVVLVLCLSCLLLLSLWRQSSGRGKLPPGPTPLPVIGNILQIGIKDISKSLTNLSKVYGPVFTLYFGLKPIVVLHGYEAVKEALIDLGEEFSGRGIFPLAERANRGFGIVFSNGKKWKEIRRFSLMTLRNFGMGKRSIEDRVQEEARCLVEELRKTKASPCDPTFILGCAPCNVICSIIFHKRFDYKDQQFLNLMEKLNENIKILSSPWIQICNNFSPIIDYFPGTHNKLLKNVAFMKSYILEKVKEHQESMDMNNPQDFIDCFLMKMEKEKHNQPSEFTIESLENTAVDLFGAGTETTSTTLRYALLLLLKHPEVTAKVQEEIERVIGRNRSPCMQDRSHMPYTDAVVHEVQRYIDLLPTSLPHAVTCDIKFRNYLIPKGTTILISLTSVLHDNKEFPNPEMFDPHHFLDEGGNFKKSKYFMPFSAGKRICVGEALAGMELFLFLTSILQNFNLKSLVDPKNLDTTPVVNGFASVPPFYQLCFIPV

[7] = biological target: T2, Cytochrome P450 3A4 (Homo sapiens, UniProt P08684); assay: Inhibition of CYP3A4 (unknown origin) at 10 uM; type: ADME
T2 sequence (P08684 whole entry): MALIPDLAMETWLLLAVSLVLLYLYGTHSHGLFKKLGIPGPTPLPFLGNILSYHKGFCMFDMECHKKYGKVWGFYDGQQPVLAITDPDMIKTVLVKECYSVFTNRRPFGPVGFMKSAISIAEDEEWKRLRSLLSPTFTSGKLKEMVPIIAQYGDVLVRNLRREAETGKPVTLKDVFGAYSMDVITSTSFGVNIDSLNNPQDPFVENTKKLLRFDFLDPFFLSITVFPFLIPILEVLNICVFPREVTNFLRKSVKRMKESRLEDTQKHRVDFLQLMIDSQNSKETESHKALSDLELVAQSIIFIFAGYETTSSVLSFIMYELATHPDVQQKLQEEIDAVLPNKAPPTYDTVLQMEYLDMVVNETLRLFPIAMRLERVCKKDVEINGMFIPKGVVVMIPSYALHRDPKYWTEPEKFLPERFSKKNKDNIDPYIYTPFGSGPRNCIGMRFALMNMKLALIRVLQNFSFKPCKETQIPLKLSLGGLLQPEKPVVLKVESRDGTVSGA

[8] = biological target: Cytochrome P450 2D6 (Homo sapiens, UniProt P10635); assay: Inhibition of CYP2D6 (unknown origin); type: ADME
[9] = biological target: Somatostatin receptor type 1 (Homo sapiens, UniProt P30872); assay: Agonist activity at SST1 (unknown origin)
Chain of Somatostatin receptor type 1 (P30872 whole entry): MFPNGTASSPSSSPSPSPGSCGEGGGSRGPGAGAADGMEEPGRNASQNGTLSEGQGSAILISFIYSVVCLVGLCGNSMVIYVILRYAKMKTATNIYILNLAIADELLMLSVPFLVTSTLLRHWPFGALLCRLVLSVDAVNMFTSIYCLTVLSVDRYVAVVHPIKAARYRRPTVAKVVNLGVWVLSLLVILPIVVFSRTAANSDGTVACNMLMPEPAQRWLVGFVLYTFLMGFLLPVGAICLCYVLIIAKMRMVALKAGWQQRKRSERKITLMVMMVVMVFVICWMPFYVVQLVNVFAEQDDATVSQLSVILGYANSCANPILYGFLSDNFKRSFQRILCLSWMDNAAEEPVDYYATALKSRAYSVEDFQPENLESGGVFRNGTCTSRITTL

[10] = biological target: T1, Somatostatin receptor type 2; assay: Agonist activity at SST2 (unknown origin)
[11] = biological target: Somatostatin receptor type 4 (Homo sapiens, UniProt P31391); assay: Agonist activity at SST4 (unknown origin)
Chain of Somatostatin receptor type 4 (P31391 whole entry): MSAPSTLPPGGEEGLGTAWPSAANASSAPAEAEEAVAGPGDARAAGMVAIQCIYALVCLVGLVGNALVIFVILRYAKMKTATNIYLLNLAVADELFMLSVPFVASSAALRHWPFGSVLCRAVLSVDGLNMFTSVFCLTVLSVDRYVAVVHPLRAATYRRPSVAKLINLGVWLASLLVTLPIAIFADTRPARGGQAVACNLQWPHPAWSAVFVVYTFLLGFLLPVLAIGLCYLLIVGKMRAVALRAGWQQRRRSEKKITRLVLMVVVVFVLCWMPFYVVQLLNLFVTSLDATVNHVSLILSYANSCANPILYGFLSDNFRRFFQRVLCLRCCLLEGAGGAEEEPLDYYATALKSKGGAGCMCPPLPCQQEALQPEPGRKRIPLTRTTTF

[12] = biological target: T2, Cytochrome P450 3A4; assay: Inhibition of CYP3A4 (unknown origin); type: ADME
[13] = biological target: Somatostatin receptor type 2 (Rattus norvegicus, UniProt P30680); assay: Agonist activity at rat SST2
Chain of Somatostatin receptor type 2 (Rattus norvegicus, UniProt P30680) (P30680 whole entry): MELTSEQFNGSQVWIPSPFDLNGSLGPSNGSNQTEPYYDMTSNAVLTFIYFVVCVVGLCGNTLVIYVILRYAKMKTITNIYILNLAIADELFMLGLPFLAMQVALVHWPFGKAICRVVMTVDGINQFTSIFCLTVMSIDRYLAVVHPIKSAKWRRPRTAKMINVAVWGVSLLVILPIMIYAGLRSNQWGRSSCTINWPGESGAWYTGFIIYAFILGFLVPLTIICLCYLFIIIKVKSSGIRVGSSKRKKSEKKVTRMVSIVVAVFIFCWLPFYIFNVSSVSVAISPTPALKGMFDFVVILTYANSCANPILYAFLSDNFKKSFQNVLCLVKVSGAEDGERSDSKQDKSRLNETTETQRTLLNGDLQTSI

[14] = Oral bioavailability in Sprague-Dawley rat at 10 mg/kg; type: ADME, organism-based; details: in vivo

T1 sequence (P30874 whole entry): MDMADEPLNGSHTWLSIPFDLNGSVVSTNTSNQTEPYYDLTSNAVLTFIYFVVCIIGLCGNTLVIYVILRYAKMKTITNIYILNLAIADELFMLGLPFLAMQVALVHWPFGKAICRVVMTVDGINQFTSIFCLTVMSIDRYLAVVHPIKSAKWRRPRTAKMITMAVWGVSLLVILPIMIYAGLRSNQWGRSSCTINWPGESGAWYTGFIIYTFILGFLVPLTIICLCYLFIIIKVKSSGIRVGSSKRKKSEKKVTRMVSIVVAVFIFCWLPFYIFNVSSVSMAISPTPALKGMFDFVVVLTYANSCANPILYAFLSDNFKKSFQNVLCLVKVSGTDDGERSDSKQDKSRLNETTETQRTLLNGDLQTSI
Chain of Cytochrome P450 2C19 (P33261 whole entry): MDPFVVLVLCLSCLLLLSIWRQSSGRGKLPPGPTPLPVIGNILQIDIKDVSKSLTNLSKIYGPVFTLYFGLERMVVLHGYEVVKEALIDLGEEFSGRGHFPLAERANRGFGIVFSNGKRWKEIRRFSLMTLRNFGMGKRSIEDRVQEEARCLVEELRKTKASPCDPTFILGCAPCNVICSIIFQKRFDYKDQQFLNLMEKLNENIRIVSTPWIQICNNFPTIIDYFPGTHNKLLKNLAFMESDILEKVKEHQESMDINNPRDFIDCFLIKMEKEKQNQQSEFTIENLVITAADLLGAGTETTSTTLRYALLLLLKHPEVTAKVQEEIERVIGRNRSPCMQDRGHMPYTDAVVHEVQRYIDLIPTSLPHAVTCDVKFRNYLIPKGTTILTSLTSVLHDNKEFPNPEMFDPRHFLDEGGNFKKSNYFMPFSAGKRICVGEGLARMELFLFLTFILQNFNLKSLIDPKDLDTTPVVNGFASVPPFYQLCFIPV

EC50 ([1]; cho-k1, read-out: EC50): > 1000 nM
EC50 ([1]; read-out: pEC50 (converted)): > 1000 nM
Structure (SMILES): Cc1cc(Cl)cc(N2C=Nc3cc(C)c(-c4cccc(-c5nnn[nH]5)c4)cc3C2C(=O)N(C)C[C@@H]2CCCN2)c1 (stereo not given in full)

EC50 ([1]; read-out: EC50): 3.7 nM
Structure (SMILES): Cc1cc(Cl)cc(N2C=Nc3cc(C)c(-c4cc(F)cc(F)c4)cc3C2C(=O)N(C)C[C@@H]2CCCN2)c1 (stereo not given in full)

inhibition (INH) [2]: Not Active
EC50 [3]: > 1000 nM
EC50 [5]: 158 nM
inhibition (INH) [6]: Not Active
inhibition (INH) [7]: Active
inhibition (INH) [8]: Not Active
EC50 [9]: > 1000 nM
Structure (SMILES): Cc1cc(Cl)cc(N2C=Nc3cc(C)c(-c4cccc(F)c4O)cc3C2C(=O)N(C)C[C@@H]2CCCN2)c1 (stereo not given in full)
IC50 ([4]; read-out: pIC50 (converted)): 5010 nM

EC50 ([1]; read-out: EC50): 0.98 nM
Structure (SMILES): Cc1cc(F)cc(N2C=Nc3cc(C)c(-c4cccc(O)c4)cc3C2C(=O)N(C)C[C@@H]2CCCN2)c1 (stereo not given in full)

EC50 ([1]; read-out: EC50): 4.6 nM
Structure (SMILES): Cc1cc(Cl)cc(N2C=Nc3cc(C)c(-c4ccc5[nH]c(=O)[nH]c5c4)cc3C2C(=O)N(C)C[C@@H]2CCCN2)c1 (stereo not given in full)

EC50 ([1]; read-out: EC50): 4.2 nM
Structure (SMILES): CC[C@H](N)CN(C)C(=O)C1c2cc(-c3cccc(O)c3)c(C)cc2N=CN1c1cc(C)cc(C)c1 (stereo not given in full)

EC50 [10]: 0.126 nM
EC50 [11]: 251 nM
EC50 [3]: > 1000 nM
EC50 [5]: 7.94 nM
EC50 [9]: > 1000 nM
EC50 ([1]; read-out: EC50): 0.12 nM
Structure (SMILES): Cc1cc(Cl)cc(N2C=Nc3cc(C)c(-c4cc(O)cc(F)c4)cc3C2C(=O)N(C)C[C@@H]2CCCN2)c1 (stereo not given in full)
IC50 ([4]; read-out: IC50): < 1000 nM
IC50 ([4]; read-out: pIC50 (converted)): 631 nM

EC50 ([1]; read-out: EC50): 6.1 nM
Structure (SMILES): COc1cc(F)cc(-c2cc3c(cc2C)N=CN(c2cc(C)cc(Cl)c2)C3C(=O)N(C)C[C@@H]2CCCN2)c1 (stereo not given in full)

EC50 ([1]; read-out: EC50): 0.36 nM
Structure (SMILES): Cc1cc(Cl)cc(N2C=Nc3cc(C)c(-c4cc(O)cc(C#N)c4)cc3C2C(=O)N(C)C[C@@H]2CCCN2)c1 (stereo not given in full)

EC50 ([1]; cho-k1, read-out: EC50): > 1000 nM
EC50 ([1]; read-out: pEC50 (converted)): > 1000 nM
Structure (SMILES): Cc1cc(C)cc(N2C=Nc3cc(Cl)c(-c4cccc(O)c4)cc3C2C(=O)NC[C@H](C)N)c1 (stereo not given in full)

EC50 ([1]; read-out: EC50): 56 nM
Structure (SMILES): Cc1cc(Cl)cc(N2C=Nc3cc(C)c(-c4ccccc4)cc3C2C(=O)N(C)C[C@@H]2CCCN2)c1 (stereo not given in full)

EC50 ([1]; read-out: EC50): 53 nM
Structure (SMILES): Cc1cc(Cl)cc(N2C=Nc3cc(C)c(-c4cccc(C(F)(F)F)c4)cc3C2C(=O)N(C)C[C@@H]2CCCN2)c1 (stereo not given in full)

EC50 ([1]; read-out: EC50): 39 nM
Structure (SMILES): Cc1cc(Cl)cc(N2C=Nc3cc(C)c(-c4cccc(Cl)c4)cc3C2C(=O)N(C)C[C@@H]2CCCN2)c1 (stereo not given in full)

EC50 ([1]; read-out: EC50): 11 nM
Structure (SMILES): Cc1cc(Cl)cc(N2C=Nc3cc(C)c(-c4cncc(C#N)c4)cc3C2C(=O)N(C)C[C@@H]2CCCN2)c1 (stereo not given in full)

EC50 ([1]; read-out: EC50): 5.4 nM
Structure (SMILES): Cc1cc(Cl)cc(N2C=Nc3cc(C)c(-c4cccc(C#N)c4)cc3C2C(=O)N(C)C[C@@H]2CCCN2)c1 (stereo not given in full)

IC50 [12]: 1000 nM
EC50 [10]: 0.158 nM
EC50 [11]: > 1000 nM
EC50 [3]: > 1000 nM
EC50 [5]: 7.94 nM
EC50 [9]: > 1000 nM
EC50 ([1]; read-out: EC50): 0.15 nM
Structure (SMILES): Cc1cc(Cl)cc(N2C=Nc3cc(C)c(-c4cc(F)cc(C(N)=O)c4)cc3C2C(=O)N(C)C[C@@H]2CCCN2)c1 (stereo not given in full)
IC50 ([4]; read-out: pIC50 (converted)): 2510 nM

EC50 ([1]; read-out: EC50): 1.3 nM
Structure (SMILES): Cc1cc(C)cc(N2C=Nc3cc(C)c(-c4cccc(O)c4)cc3C2C(=O)N(C)C[C@@H]2CCCN2)c1 (stereo not given in full)

EC50 [10]: 1.26 nM
EC50 [11]: 631 nM
EC50 [5]: 3.98 nM
EC50 [9]: > 1000 nM
EC50 ([1]; read-out: EC50): 1.3 nM
Structure (SMILES): Cc1cc(Cl)cc(N2C=Nc3cc(C)c(-c4cc(F)cc(C#N)c4)cc3C2C(=O)N(C)C[C@@H]2CCCN2)c1 (stereo not given in full)

EC50 ([1]; read-out: EC50): 2.1 nM
Structure (SMILES): Cc1cc(Cl)cc(N2C=Nc3cc(C)c(-c4cc(F)ccc4O)cc3C2C(=O)N(C)C[C@@H]2CCCN2)c1 (stereo not given in full)

EC50 [13]: 0.54 nM
bioavailability [14]: < 5%
Structure (SMILES): Cc1cc(Cl)cc(N2C=Nc3cc(C)c(-c4cccc(F)c4O)cc3C2C(=O)N(C)CC2CCCN2)c1 (stereo not given)

EC50 [10]: 0.2 nM
EC50 [9]: > 1000 nM
EC50 ([1]; read-out: EC50): 0.2 nM
Structure (SMILES): Cc1cc(Cl)cc(N2C=Nc3cc(C)c(-c4cc(O)ccc4F)cc3C2C(=O)N(C)C[C@@H]2CCCN2)c1 (stereo not given in full)
IC50 ([4]; read-out: IC50): < 1000 nM
IC50 ([4]; read-out: pIC50 (converted)): 501 nM

EC50 ([1]; read-out: EC50): 0.33 nM
Structure (SMILES): Cc1cc(Cl)cc(N2C=Nc3cc(C)c(-c4cccc(O)c4)cc3C2C(=O)N(C)C[C@@H]2CCCN2)c1 (stereo not given in full)

EC50 ([1]; read-out: EC50): 11 nM
Structure (SMILES): CC[C@H](N)CN(C)C(=O)C1c2cc(-c3cccc(O)c3)c(Cl)cc2N=CN1c1cc(C)cc(C)c1 (stereo not given in full)

EC50 ([1]; read-out: EC50): 170 nM
Structure (SMILES): Cc1cc(Cl)cc(N2C=Nc3cc(C)c(-c4cnn(C)c4)cc3C2C(=O)N(C)C[C@@H]2CCCN2)c1 (stereo not given in full)

EC50 ([1]; read-out: EC50): 8.1 nM
Structure (SMILES): Cc1cc(Cl)cc(N2C=Nc3cc(C)c(-c4cncc(O)c4)cc3C2C(=O)N(C)C[C@@H]2CCCN2)c1 (stereo not given in full)

EC50 ([1]; cho-k1, read-out: EC50): > 1000 nM
EC50 ([1]; read-out: pEC50 (converted)): > 1000 nM
Structure (SMILES): Cc1cc(C)cc(N2C=Nc3ccc(-c4cccc(O)c4)cc3C2C(=O)N(C)C[C@H](C)N)c1 (stereo not given in full)

EC50 ([1]; read-out: EC50): 130 nM
Structure (SMILES): Cc1cc(Cl)cc(N2C=Nc3cc(C)c(-c4cccc(NS(C)(=O)=O)c4)cc3C2C(=O)N(C)C[C@@H]2CCCN2)c1 (stereo not given in full)

From ChEMBL document CHEMBL4665730, “Discovery of nonpeptide 3,4-dihydroquinazoline-4-carboxamides as potent and selective sst2 agonists” (Bioorg Med Chem Lett, 2020)
